Columns and labels:
[1] = test system: LNCaP-JAK1 cells; experiment: Trypan blue exclusion assay of LNCaP-JAK1 cells; type: cell-based, human
Description: Graph depicts mean±SE (n=5) of the percentage of trypan blue permeable cells with and without IFNα. **p<0.005.
Graph depicts mean±SE (n=10).**p<0.005; ns, non-significant.
In the presence of Q-VD-OPh (throughout pre-treatment and infection). **p<0.01.
The indicated cells were treated and infected as in FIG. 9B, and the percentage of dead cells was determined by trypan blue exclusion assay. Graph depicts mean±SE of the percentage of dead cells with and without IFNγ (n=3). **p<0.005; ns (non-significant).
Trypan blue exclusion assay—2×10^5 LNCaP cells/well in a 12-well plate were infected, or not, under the indicated experimental conditions. For each well, detached and attached cells were collected together and mixed with 0.5% trypan blue at a 1:1 ratio. Cells were classified by trypan blue exclusion by light microscopy. Trypan blue (0.5%) was from Beit Haemek Biological Industries, Israel (cat. #03-102-1B).

[2] = test system: LNCaP cells; experiment: Preliminary experiments, toxicity of TSA to LNCaP cells; type: cell-based, human; conditions: longer incubation periods (84 to 96 hours)
[3] = test system: DU145 cells; experiment: Immunofluorescence of NS3-positive infected DU145 cells with or without IFNα; type: cell-based, human; conditions: DU145, IFNα 200 U/ml for 45 hours
Description: (§1) Quantification of percentage NS3 positive cells was from multiple (n=5) randomly selected fields, imaged under the same conditions as in FIG. 4D; *p<0.05.
(§2) Immunofluorescence—DU145 or LNCaP cells were seeded (5×10^4 cells/well) onto glass coverslips placed in a 24-well plate, and were infected, or not, with EHDV-TAU-LNCaP, in the presence or absence of IFNα. At 44 hours post infection (hpi) or 2 hours (for IFNα treatment), cells were washed twice with cold PBS (4° C.), fixed (4% paraformaldehyde for 20 minutes), blocked and permeabilized (PBS 1%/BSA 0.1%/Triton 0.1% (PBS/BSA/T) for 30 minutes), and stained with polyclonal anti-NS3 (1:300 dilution in PBS/BSA/T). Alexa-488 or 555-conjugated goat-anti-rabbit antibodies (1:200 dilution in PBS/BSA/T) were used as secondary antibodies. In order to detect nuclear phosphorylated STAT1, cells were fixed (4% paraformaldehyde for 20 minutes) and permeabilized with ice-cold methanol (10 minutes at −20° C.). Cells were stained with Rabbit-anti phospho-Tyr701-STAT1 (1:100 dilution in PBS/BSA/T) for overnight at 4° C. Mounting was with Fluorescence Mounting Medium (Golden Bridge, Mukilteo, Wash., USA, cat. #E1818).

[4] = test system: LNCaP cells; experiment: Immunofluorescence of NS3-positive infected LNCaP cells with or without IFNα; type: cell-based, human; conditions: IFNα 200 U/ml for 45 hours
Description: as §1, §2

[5] = test system: DU145 cells; experiment: Virus-induced death of DU145 cells with IFN; type: cell-based, human; conditions: DU145, IFN alone
[6] = test system: LNCaP cells; experiment: IFNα-mediated STAT1 phosphorylation in LNCaP cells (immunoblot); type: cell-based, human
[7] = test system: DU145 cells; experiment: IFNα-mediated STAT1 phosphorylation in DU145 cells (immunoblot); type: cell-based, human
[8] = test system: LNCaP cells; type: cell-based, human
[9] = test system: LNCaP-JAK1 cells; experiment: IFNα-induced pSTAT1 in LNCaP-JAK1 cells (immunoblot); type: cell-based, human; conditions: LNCaP-JAK1, 200 U/ml for 2 hours
[10] = test system: LNCaP-JAK1 cells; experiment: qRT-PCR of IFIT5 and IRF7 in LNCaP-JAK1 cells after IFNα; type: cell-based, human; conditions: LNCaP-JAK1, IFNα 200 U/ml for 24 hours
Description: The average expression level of untreated cells was taken as 1. *p<0.05.
qRT-PCR—Total RNA was extracted from cells using EZ-RNA kit (Biological Industries, Israel, cat. #20-400-100) according to the manufacturer's instructions. First-strand cDNA synthesis was performed using the iScript cDNA Synthesis Kit (Bio Rad cat. #1708890) according to the manufacturer's instructions, with additional no-RNA control. Real-Time PCR analyses of mRNA levels of the genes of interest, relative to GAPDH mRNA levels were performed in triplicates, using Fast SYBR-green master mix (Applied Biosystems, cat. #4385612) with StepOnePlus Real-Time PCR System (Applied Biosystems, cat. #4376600). Primers were designed to span exon-exon junctions and to produce 80-140 bp amplicons. Gene expression values were calculated based on the comparative threshold cycle method.

[11] = test system: LNCaP-JAK1 cells; type: cell-based, human
[12] = test system: LNCaP-JAK1 cells; experiment: SILAC proteome analysis of LNCaP-JAK1 cells; conditions: for number of ISGs upregulated (of 50 ISGs): LNCaP-JAK1, cytokine treatment alone
Description: Stable Isotope Labeling by Amino Acids Analysis (S/LAC)—LNCaP and LNCaP-JAK1 cells were grown in RPMI devoid of lysine and arginine (Thermo, Cat. #A2494401), supplemented with 10% dialyzed FCS (Biological Industries, cat. #04-011-1A) and antibiotics for ten cell divisions (^˜3 weeks). “Heavy” culture medium was supplemented with ^13C6^15N2-lysine (146 mg/ml, cat. #CNLM-291-H) and ^13C6^15N4-arginine (84 mg/ml cat. #CNLM-539-H) both from Cambridge Isotope Laboratories. “Light” labeled culture medium was supplemented with unmodified lysine and arginine at the same concentrations. To avoid potential bias in the analysis, in any given condition, cultures were labeled with heavy (H) or light (L) amino acids; or with the reciprocal labeling. Each H-L pair was repeated twice. Thus, quantification of each condition was based on four independent replicates. Labeled cells, either treated or untreated, were trypsinized, counted, and washed twice in cold PBS. Samples were digested by trypsin and analyzed by Liquid chromatography tandem-mass spectrometry (LC-MS/MS) on Q Exactive hybrid quadrupole-Orbitrap mass spectrometer (Thermo Scientific). The data were analyzed and quantified with MaxQuant 1.5.2.8, using the human Uniprot database. Proteins were identified with false discovery rate (FDR)<0.01.

[13] = test system: LNCaP-JAK1 cells; experiment: Cell cycle analysis (sub-G1, PI, FACS) of LNCaP-JAK1 cells; type: cell-based, human; conditions: LNCaP-JAK1, IL-6 treatment
Description: RPMI (supplemented with 10% FCS, 10 ml) was added post-fixation, after which cells were pelleted, washed twice with cold PBS and re-suspended in PBS supplemented with RNase A (20 μg/ml, 30 minutes). Following additional pelleting, cells were re-suspended in Propidium Iodide (P1) solution (50 μg/ml in PBS) and analyzed by FACS (Becton Dickinson).

[14] = test system: LNCaP cells; experiment: SILAC proteome analysis of LNCaP cells; conditions: IL-6 5 ng/ml for 16 hours
[15] = test system: LNCaP-JAK1 cells; experiment: Immunoblot of STAT1 and STAT3 phosphorylation after IFNγ in LNCaP-JAK1 cells; type: cell-based, human; conditions: LNCaP-JAK1, IFNγ 25 ng/ml for 20 minutes
Description: LNCaP and LNCaP-JAK1 cells were exposed to 25 ng/ml of IFNγ for 20 minutes.

Q: For COC(=O)CC(NC(=O)C(NC(=O)c1ccc2ccccc2n1)C(C)C)C(=O)COc1c(F)cccc1F (stereo not shown) [Q-VD-OPh, Quinolyl-valyl-O-methylaspartyl-[-2,6-difluorophenoxy]-methyl ketone, reference compound], which “effect of caspase inhibition on death of infected cells” value ([1]; LNCaP-JAK1, Q-VD-OPh 20 μM, regardless of the presence of IL-6) is on record?
A: to basal levels

Q: How did the “toxicity to LNCaP cells” value [2] turn out when CC(/C=C/C(=O)NO)=C\[C@@H](C)C(=O)c1ccc(N(C)C)cc1 [TSA, trichostatin A] was run?
A: toxic

Q: IFNα was tested. Which “effect of IFNα on NS3 signal of EHDV-TAU-LNCaP-infected cultures” value [3] did it give?
A: abrogated the NS3 signal

Q: What about the “effect of IFNα on EHDV-TAU-LNCaP infection” value [4] of the same molecule?
A: negligible effects

Q: And the “protection from virus-induced death” value [5]?
A: significantly protect

Q: What about the “pSTAT1 in response to IFNα” value ([6]; 200 U/ml for 4 hours) of the same molecule?
A: only residual pSTAT1 levels

Q: And the “increase in pSTAT1 levels” value ([6]; 30 minutes post stimulation with 200 U/ml IFNα)?
A: 4.2±2.5 fold

Q: And the “STAT1 phosphorylation in response to IFNα” value ([7]; DU145, 200 U/ml for 4 hours)?
A: robust STAT1 phosphorylation

Q: What about the “increase in pSTAT1 levels” value ([7]; DU145, 30 minutes post stimulation with 200 U/ml IFNα) of the same molecule?
A: 18±11 fold

Q: What about the “activation of ISRE luciferase reporter” value [8] of the same molecule?
A: 1.2±0.1 fold

Q: And the “pSTAT1 levels upon IFNα stimulation” value [9]?
A: dramatic increases in pSTAT1 levels

Q: And the “expression of IFIT5 and IRF7” value [10]?
A: marked induction

Q: What about the “effect on production of infectious virions” value [11] of the same molecule?
A: inhibited production of infectious virions

Q: And the “effect on EHDV-TAU-LNCaP-induced cell death” value ([1]; LNCaP-JAK1, IFNα 200 U/ml)?
A: protection from EHDV-TAU-LNCaP-induced cell death was observed

Q: And the “number of ISGs upregulated (of 50 ISGs)” value [12]?
A: 17

Q: What about the “enrichment of ISGs in IFNα-induced proteome changes” value ([12]; LNCaP-JAK1 compared to parental LNCaP cells) of the same molecule?
A: 24.4%

Q: What does the source list for “IL-6: Human IL-6 (PeproTech), pleiotropic cytokine”?
A: percentage of cells exhibiting sub-G1 DNA content [13]: slight increase; number of ISGs upregulated (of 50 ISGs) [14]: 3; number of ISGs upregulated (of 50 ISGs) [12]: 16

B1: IFNγ: human IFNγ (PeproTech) (protein, UniProt P01579 24-161, looked up)
Interferon gamma: QDPYVKEAENLKKYFNAGHSDVADNGTLFLGILKNWKEESDRKIMQSQIVSFYFKLFKNFKDDQSIQKSVETIKEDMNVKFFNSNKKKRDDFEKLTNYSVTDLNVQRKAIHELIQVMAELSPAAKTGKRKRSQMLFRG
Q: How did the “effect on death of infected cells” value ([1]; LNCaP-JAK1, IFNγ 25 ng/ml) turn out when B1 was run?
A: supported oncolysis by non-productive viral infection

Q: And the STAT activation [15]?
A: activated STAT1 (but not STAT3)

Q: And the “number of ISGs induced” value ([12]; LNCaP-JAK1, IFNγ 25 ng/ml, 14 hours)?
A: 35

— patent US11484558B2, “Epizootic hemorrhagic disease virus—tel aviv university (EHDV-TAU)—oncolytic virus for treating cancer” (Ramot at Tel-Aviv University Ltd., priority 2017, dated 2022)
